Measured values from PubChem BioAssay (NCI).
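96-well plates; 48 h exposure; 5 concentrations. Endpoints by linear interpolation between flanking doses. Not reached: highest tested concentration assigned. GI50 is the concentration that inhibits growth by half. TGI: concentration producing complete growth inhibition.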

What was measured:
Assay in all cases: NCI-60 cell line screen, 48 h
KM12 colon = tested on: KM12 colon
UACC-257 melanoma = tested on: UACC-257 melanoma
NCI-H23 lung = tested on: NCI-H23 lung
UO-31 renal = tested on: UO-31 renal
HCT-116 colon = tested on: HCT-116 colon
DU-145 prostate = tested on: DU-145 prostate
SR leukemia = tested on: SR leukemia
BT-549 breast = tested on: BT-549 breast
SN12C renal = tested on: SN12C renal
786-0 renal = tested on: 786-0 renal

Row | SMILES | GI50 (KM12 colon) | TGI (KM12 colon) | GI50 (UACC-257 melanoma) | TGI (UACC-257 melanoma) | GI50 (NCI-H23 lung) | TGI (NCI-H23 lung) | GI50 (UO-31 renal) | TGI (UO-31 renal) | GI50 (HCT-116 colon) | TGI (HCT-116 colon) | GI50 (DU-145 prostate) | TGI (DU-145 prostate) | GI50 (SR leukemia) | TGI (SR leukemia) | GI50 (BT-549 breast) | TGI (BT-549 breast) | GI50 (SN12C renal) | TGI (SN12C renal) | GI50 (786-0 renal) | TGI (786-0 renal)
1 | CC/C(=N/N=C(N)N)c1ccc(NC(=O)Nc2ccc(/C(CC)=N/N=C(N)N)cc2)cc1 | 3.49 µM | 20.1 µM | 13.8 µM | 42 µM | 11.5 µM | 50.8 µM | 12.4 µM | 27.2 µM | 5.72 µM | 25.5 µM | 5.02 µM | 30.5 µM | 2.44 µM | 14.9 µM | 3.83 µM | 21.1 µM | 3.16 µM | 19.4 µM | 9.02 µM | 30.9 µM
2 | COc1c2ccccc2c(O)c2c(=O)ccn(C)c12 | 4.97 µM | 38.3 µM | 3.45 µM | 12.6 µM | 1.73 µM | 4.08 µM | > 57.5 µM | > 100 µM | 3.13 µM | 13.1 µM | 7.67 µM | > 100 µM | 8.94 µM | 81.8 µM | 14.7 µM | 84.2 µM | 6.79 µM | 22.1 µM | 17.2 µM | 66.4 µM
3 | Cc1cc2c(cc1Cl)N1C(=O)NS(=O)(=O)N=C1NS2(=O)=O | > 100 µM | > 100 µM | > 100 µM | > 100 µM | > 100 µM | > 100 µM | > 100 µM | > 100 µM | > 100 µM | > 100 µM | > 100 µM | > 100 µM | > 100 µM | > 100 µM | > 100 µM | > 100 µM | > 100 µM | > 100 µM | > 100 µM | > 100 µM
4 | COc1cc(-c2nn(-c3cccc(NC(=O)CCN4CCN(C)CC4)c3)cc2-c2ccncc2)ccc1Cl | 1.36 µM | 4.59 µM | 1.44 µM | 3.07 µM | 2.38 µM | 10.4 µM | 1.38 µM | 3.91 µM | 0.904 µM | 4.17 µM | 0.997 µM | 6.24 µM | 0.471 µM | 2.64 µM | 7.26 µM | 20.4 µM | 2.05 µM | 8.45 µM | 1.54 µM | 3.43 µM
5 | CCOC(=O)c1cc(-c2ccccc2)[nH]c1N/N=C/c1c(Cl)cccc1Cl | 0.584 µM | 24.3 µM | 49.2 µM | > 100 µM | 1.33 µM | 40.4 µM | 1.34 µM | > 100 µM | 0.729 µM | > 36.7 µM | 1.59 µM | 11.7 µM | 0.413 µM | 10.2 µM | 1.24 µM | 18.9 µM | 4.3 µM | > 100 µM | 1.39 µM | 49 µM
6 | C=C1C(=O)C2(C)OC2(C)C1C(=O)O (stereo unspecified) | – | > 100 µM | – | > 100 µM | – | > 100 µM | – | > 100 µM | – | > 100 µM | – | > 100 µM | – | > 100 µM | – | > 100 µM | – | > 100 µM | – | > 100 µM
7 | O=C1NC(=N[C@H](CO)c2ccccc2)S/C1=C\c1ccc2ncccc2c1 | 5.77 µM | > 21.4 µM | 6.39 µM | 19.2 µM | 6.42 µM | > 25 µM | 4.61 µM | 13.8 µM | 1.68 µM | > 21 µM | 3.3 µM | > 21.3 µM | 0.786 µM | 4.85 µM | 3.95 µM | > 16 µM | 5.02 µM | > 25 µM | 7.31 µM | > 25 µM
8 | Nc1ccc(C(=O)Nc2ccccc2N)cc1 | – | > 100 µM | – | > 72.5 µM | – | > 100 µM | – | > 100 µM | – | > 90.7 µM | – | > 100 µM | – | > 100 µM | – | > 100 µM | – | > 100 µM | – | > 100 µM
9 | Cc1cc(N)cc(C)c1-c1c(Br)cc(N)cc1Br | 3.75 µM | 17.3 µM | 14.3 µM | 51.8 µM | 3.52 µM | 19 µM | 9.11 µM | 46 µM | 3.68 µM | 13.1 µM | 2.89 µM | 9.13 µM | – | – | 7.51 µM | 30.4 µM | 6.05 µM | 73.2 µM | 5.53 µM | 18.7 µM
10 | N=C1C(c2nc3ccccc3s2)=C(O)CN1c1cc(Cl)cc(Cl)c1 | > 100 µM | > 100 µM | 40.2 µM | > 100 µM | > 100 µM | > 100 µM | 91.3 µM | > 100 µM | 87.2 µM | > 100 µM | > 100 µM | > 100 µM | > 100 µM | > 100 µM | > 100 µM | > 100 µM | > 100 µM | > 100 µM | 88.7 µM | > 100 µM
11 | CC(=O)C(C=O)C(C)=O.CC(=O)CC(C)=O.CC(=O)CC(C)=O.[Ru] | 27.2 µM | > 100 µM | 32.9 µM | > 100 µM | 12.1 µM | 44.3 µM | 26.9 µM | > 100 µM | 21.8 µM | > 100 µM | 37.8 µM | > 100 µM | 18.2 µM | 92.6 µM | 7.27 µM | 69.5 µM | 1.97 µM | 9.18 µM | 37.3 µM | > 100 µM
12 | CC(C)COC(c1ccc2c(c1)OCO2)C(C)Br (stereo unspecified) | – | 55 µM | – | 55.5 µM | – | 72.9 µM | – | 67.5 µM | – | 38.7 µM | – | > 100 µM | – | 46.1 µM | – | > 100 µM | – | 45 µM | – | 62.3 µM
13 | FC(F)(F)c1ccc(NCc2nc3ccccc3[nH]2)cc1 | 29.7 µM | 87.7 µM | 23.5 µM | 67.9 µM | 22.9 µM | 80.2 µM | 30.4 µM | > 100 µM | 23 µM | 68.7 µM | 47.9 µM | > 100 µM | 28.3 µM | > 100 µM | 31.1 µM | 97.5 µM | 29.7 µM | > 100 µM | 30.7 µM | > 100 µM
14 | Cc1ccc(S(=O)(=O)CC2(Br)CCc3ccccc3C2=O)cc1 (stereo unspecified) | – | > 100 µM | – | 44.1 µM | – | > 100 µM | – | 50.5 µM | – | > 100 µM | – | > 100 µM | – | – | – | 41.1 µM | – | > 100 µM | – | > 100 µM
15 | COc1cc(/C=C/c2ccccn2)cc(OC)c1OC | – | > 10 µM | – | > 10 µM | – | > 10 µM | – | > 10 µM | – | > 10 µM | – | > 10 µM | – | – | – | > 10 µM | – | > 10 µM | – | > 10 µM
